The test system of data set [1] is dopaminergic (TH+, MAP2+) neurons in primary midbrain cultures. It is filed as cell-based, rat. Particulars: for mean % dopaminergic neurons ± S.E.M: n = 6; for Selective loss of dopaminergic neurons / DA neuron loss at 1 µM: vs. control; for percentage of dopaminergic neurons (mean ± SEM), time course: n = 4, control 6.30 ± 0.58.
Data set [2] concerns non-dopaminergic (TH-, MAP2+) neurons in primary midbrain cultures. The data set can be described thus: Raw non-dopaminergic. It is filed as cell-based, rat. Particulars: 1 µM, 24 – 72 h, all time-points.
Data set [3] deals with dopaminergic (TH+) neurites in primary midbrain cultures. In words: Neurite length quantification of dopaminergic. The following applies: for Change in dopaminergic (TH+) neurite length, time course: 24 – 72 h; for Dopaminergic (TH+) neurite length (mean ± SEM) / Decrease in dopaminergic (TH+) neurite length / Concentration at which decreased dopaminergic (TH+) neurite length was detected / Change in dopaminergic (TH+) neurite length: 24 h; for Decrease in dopaminergic (TH+) neurite length: vs. control; for Concentration at which decreased dopaminergic (TH+) neurite length was detected: doses 100 nM – 5 µM. It counts as cell-based, rat.

Data set [4] concerns total neurons (MAP2+) in primary midbrain cultures. In words: Neurite length quantification, pan-neuronal. Particulars: 1 µM, 24 – 72 h, all time-points. It counts as cell-based, rat.
Data set [5] concerns dopaminergic (TH+, MAP2+) neurons in primary midbrain cultures. The data set can be described thus: 3-Nitrotyrosine. Particulars: 1 µM; for NT fluorescence intensity normalized to mean control value ± SEM, dopaminergic neurons: control 100 ± 9.1.
Data set [6] has as its system non-dopaminergic (TH-, MAP2+) neurons in primary midbrain cultures. The data set can be described thus: 3-Nitrotyrosine. Particulars: 1 µM; control 100 ± 21.61.
For data set [7] the following is noted: ref PubChem Compound Database; cited from earlier work.

Where “and” joins values, the source holds several entries; their conditions need not be identical. Equal entries are not always repeated. Entries after “also recorded” stand apart in the source; their conditions may differ. Where two headings read alike, the source gives them in different places. A value given as a limit tells only on which side of the number the result lay.

On to `Cc1cc2ncccc2c2nc(N)n(C)c12` [MeIQ, 2-amino-3,4-dimethylimidazo[4,5-f]quinoline], for which, in data set [1] (200 nM, 24 h), the “mean % dopaminergic neurons ± S.E.M” value turned out to be 4.372 ± 0.3579% and the “Selective loss of dopaminergic neurons” value stood at 23%. Besides, in data set [1] (1 µM, 24 h), the “percentage of dopaminergic neurons (mean ± SEM), time course” value (shortened to “percentage … (mean ± SEM), time course”) is given as 5.51 ± 0.66% and the “DA neuron loss at 1 µM” value turned out to be 25%. In addition, in data set [1] (1 µM, 48 h), the “percentage … (mean ± SEM), time course” value is 5.11 ± 0.66%. Besides, the “percentage … (mean ± SEM), time course” value in data set [1] (1 µM, 72 h) was determined as 3.90 ± 0.81%. The “Effect on non-dopaminergic (MAP2+/TH-) cell counts, time course” value in data set [2] is listed as “not affected”. Moreover, in data set [3] (1 µM), the “Change in dopaminergic (TH+) neurite length, time course” value (from here on “Change in dopaminergic … time course”) was “Decreased”; the “Dopaminergic (TH+) neurite length (mean ± SEM)” value is recorded as 63.58 ± 1.584 µm; the “Decrease in dopaminergic (TH+) neurite length” value (“Decrease in dopaminergic” for short) is reported as 10%. Moreover, in data set [4], the “Effect on non-dopaminergic neurites, time course” value was “not affected”. Also, in data set [5], the “Fold increase in NT immunofluorescence signal vs. control, dopaminergic neurons” value is > 5 fold and ~4 fold; the “NT fluorescence intensity normalized to mean control value ± SEM, dopaminergic neurons” value is given as 362.9 ± 45.8. For the same molecule, the “NT fluorescence intensity normalized to mean control value ± SEM, non-dopaminergic neurons” value in data set [6] was determined as 130.1 ± 14.91.

As to `c1ccc2c(c1)[nH]c1cnccc12` [Norharmane, 9H-Pyrido[3,4-B]indole], in data set [1] (100 nM, 24 h), the “mean % dopaminergic neurons ± S.E.M” value stood at 4.703 ± 0.3711% and the “Selective loss of dopaminergic neurons” value came to 18%. For the same molecule, the “DA neuron loss at 1 µM” value in data set [1] (1 µM, 24 h) was determined as 20%. In addition, in data set [3] (500 nM), the “Dopaminergic (TH+) neurite length (mean ± SEM)” value stood at 63.15 ± 1.864 µm and the “Decrease in dopaminergic” value turned out to be 11%. Also, the “Concentration at which decreased dopaminergic (TH+) neurite length was detected” value in data set [3] stood at 500 nM. The “Concentration at which decreased dopaminergic (TH+) neurite length was detected” value in data set [3] (listed as norharmane) is listed as ≥ 500 nM.

Turning to `Nc1ccc2c(n1)[nH]c1ccccc12` [AαC, 2-amino-9H-pyrido[2,3-b]indole], in data set [1] (1 µM, 24 h), the “mean % dopaminergic neurons ± S.E.M” value amounted to 3.932 ± 0.4382% and the “DA neuron loss at 1 µM” value is listed as 27%. Moreover, in data set [3] (100 nM), the “Dopaminergic (TH+) neurite length (mean ± SEM)” value is 62.93 ± 1.743 µm and the “Decrease in dopaminergic” value worked out at 11%.

As a reminder, the Log P is the decadic logarithm of the partition coefficient of the neutral form, usually between octanol and water. As to `Cc1cnc2ccc3c(nc(N)n3C)c2n1` [MeIQx, 2-amino-3,8-dimethylmidazo[4,5-f]quinoxaline], in data set [1] (1 µM, 24 h), the “mean % dopaminergic neurons ± S.E.M” value was found to be 4.207 ± 0.3535% and the “DA neuron loss at 1 µM” value turned out to be 17%. For the same molecule, in data set [3] (1 µM), the “Dopaminergic (TH+) neurite length (mean ± SEM)” value was found to be 61.97 ± 1.94 µm and the “Decrease in dopaminergic” value was 12%. Moreover, the “Concentration at which decreased dopaminergic (TH+) neurite length was detected” value in data set [3] came out at 1000 nM. In addition, in data set [7], the “Log P” value is 1.0.

As to `Cn1c(N)nc2c3cccnc3ccc21` [IQ, 2-amino-3-methylimidazo[4,5-f]quinoline], the “DA neuron loss at 1 µM” value in data set [1] (1 µM, 24 h) is “Not significant”. Besides, the “mean % dopaminergic neurons ± S.E.M” value in data set [1] (5 µM, 24 h) turned out to be 4.338 ± 0.4525%. Further, the “Selective loss of dopaminergic neurons” value in data set [1] (5 µM, 24 h) is given as 23%. Also, the “Change in dopaminergic (TH+) neurite length” value in data set [3] (higher doses) is listed as “not significant decreases”; in data set [3] (low doses (100 and 200 nM)), “significant increases”.

For `Cc1cnc2cc(C)c3c(nc(N)n3C)c2n1` [4,8-DiMeIQx, 2-amino-3,4,8-trimethylimidazo[4,5-f]quinoxaline], in data set [1] (100 nM, 24 h), the “mean % dopaminergic neurons ± S.E.M” value worked out at 4.663 ± 0.3194% and the “Selective loss of dopaminergic neurons” value is given as 20%. Moreover, in data set [1] (1 µM, 24 h), the “DA neuron loss at 1 µM” value is 26%. Also, in data set [3] (all tested doses 100 nM – 5 µM), the “Change in dopaminergic (TH+) neurite length” value is “no significant alteration; also recorded: did not have an effect”.

As to `Cn1c(N)nc2ncc(-c3ccccc3)cc21` [PhIP, 2-amino-1-methyl-6-phenylimidazo[4,5-b]pyridine], in data set [1] (1 µM, 24 h), the “percentage … (mean ± SEM), time course” value amounted to 5.17 ± 0.95%; the “mean % dopaminergic neurons ± S.E.M” value was found to be 4.612 ± 0.3403%; the “DA neuron loss at 1 µM” value turned out to be 19%. Further, in data set [1] (1 µM, 48 h), the “percentage … (mean ± SEM), time course” value is given as 4.60 ± 0.70%. The “percentage … (mean ± SEM), time course” value in data set [1] (1 µM, 72 h) is recorded as 3.61 ± 0.45%. Further, the “Effect on non-dopaminergic (MAP2+/TH-) cell counts, time course” value in data set [2] was “not affected”. In addition, in data set [3] (1 µM), the “Change in dopaminergic … time course” value was “Decreased”; the “Dopaminergic (TH+) neurite length (mean ± SEM)” value came to 57.76 ± 1.656 µm; the “Decrease in dopaminergic” value is 15%. Also, in data set [4], the “Effect on non-dopaminergic neurites, time course” value is given as “not affected”.

For `Cc1nccc2c1[nH]c1ccccc12` [Harmane, 1-methyl-9H-pyrido[3,4-b]indole], the “Threshold for detectable selective DA neurotoxicity” value in data set [1] is on record as 200 nM. Moreover, in data set [1] (200 nM, 24 h), the “mean % dopaminergic neurons ± S.E.M” value was 4.677 ± 0.2123% and the “Selective loss of dopaminergic neurons” value came out at 15%. Besides, in data set [1] (1 µM, 24 h), the “percentage … (mean ± SEM), time course” value is 6.04 ± 0.72% and the “DA neuron loss at 1 µM” value is 21%. Moreover, in data set [1] (1 µM, 48 h), the “percentage … (mean ± SEM), time course” value is 4.80 ± 0.90%. In data set [1] (1 µM, 72 h), the “percentage … (mean ± SEM), time course” value is 3.47 ± 0.53%. Further, in data set [2], the “Effect on non-dopaminergic (MAP2+/TH-) cell counts, time course” value is reported as “not affected”. Besides, in data set [3] (100 nM), the “Dopaminergic (TH+) neurite length (mean ± SEM)” value was 62.67 ± 1.713 µm and the “Decrease in dopaminergic” value came to 14%. Moreover, in data set [3] (1 µM), the “Change in dopaminergic … time course” value is listed as “Decreased”. The “Effect on non-dopaminergic neurites, time course” value in data set [4] is “not affected”. In data set [5], the “Fold increase in NT immunofluorescence signal vs. control, dopaminergic neurons” value was ~7 fold and the “NT fluorescence intensity normalized to mean control value ± SEM, dopaminergic neurons” value came to 731.3 ± 94.03. Moreover, the “NT fluorescence intensity normalized to mean control value ± SEM, non-dopaminergic neurons” value in data set [6] stood at 188.1 ± 23.92.
